Data from ChEMBL document CHEMBL1133658 (J Med Chem, 2000).

What follows are compounds tested against T1, Tubulin alpha chain (Sus scrofa, UniProt P02550) (assay: Inhibition of tubulin polymerization interacting at the colchicine binding site).
T1 sequence (P02550 whole entry, looked up): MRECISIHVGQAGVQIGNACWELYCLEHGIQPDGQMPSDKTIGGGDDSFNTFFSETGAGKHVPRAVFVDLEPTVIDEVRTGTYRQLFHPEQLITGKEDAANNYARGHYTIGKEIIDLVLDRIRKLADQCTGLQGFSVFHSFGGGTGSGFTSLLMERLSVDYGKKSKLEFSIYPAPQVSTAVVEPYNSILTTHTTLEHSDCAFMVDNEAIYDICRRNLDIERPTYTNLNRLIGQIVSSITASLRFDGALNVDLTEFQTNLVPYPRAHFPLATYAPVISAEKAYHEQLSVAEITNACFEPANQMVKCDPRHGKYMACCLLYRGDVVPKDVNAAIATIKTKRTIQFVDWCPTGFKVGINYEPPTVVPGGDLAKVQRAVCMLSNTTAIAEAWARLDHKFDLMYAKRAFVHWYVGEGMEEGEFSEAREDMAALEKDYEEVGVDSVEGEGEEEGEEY

| Compound | IC50 [µM] |
| --- | --- |
| Cc1cnc2nc(-c3cccc(F)c3)cc(O)c2c1 | 0.631 |

What follows are compounds tested against T1, Tubulin alpha chain.

| Compound | IC50 [µM] |
| --- | --- |
| COc1cccc([C@H]2CC(=O)c3cc4c(cc3N2)OCO4)c1 | 2.34 |
| COc1cc2c(c(OC)c1OC)-c1ccc(SC)cc1[C@@H](OC(C)=O)CC2 | 2.82 |
| COc1cc2c(c(OC)c1OC)-c1ccc(SC)cc1[C@@H](OC(=O)c1cccnc1)CC2 | 4.79 |
| Oc1cc(-c2cccs2)nc2cc3c(cc12)OCO3 | 2.19 |
| Cc1cccc(-c2cc(O)c3ccc(C)nc3n2)c1 | 1.91 |
| COc1cccc(-c2cc(O)c3ccccc3n2)c1 | 1.41 |
| Cc1ccnc2nc(-c3cccc4ccccc34)cc(O)c12 | 0.933 |
| Cc1ccc2c(=O)cc(-c3cccc(F)c3)[nH]c2n1 | 0.525 |
| COc1cc2c(c(OC)c1OC)-c1ccc(SC)c(=O)cc1[C@@H](NC(=O)CC(C)=O)CC2 | 1.41 |
| COc1ccc2c(c1)CC=Cc1cc(OC)c(OC)c(OC)c1-2 | 1.51 |
| COc1cc2c(c(OC)c1OC)-c1ccc(SC)c(=O)cc1[C@@H](COC(=O)c1ccc(F)cc1)C2 | 4.47 |
| COc1cccc(-c2cc(O)c3c(Br)ccnc3n2)c1 | 1.51 |
| COC(=O)c1ccc2c(c1)C(NC(C)=O)CCc1cc(OC)c(OC)c(OC)c1-2 (configuration not stated) | 1.41 |
| COc1cc2c(c(OC)c1OC)-c1ccc(SC)c(=O)cc1[C@@H](NCc1ccc(C#N)cc1)CC2 | 2.51 |
| Oc1cc(-c2cccc(F)c2)nc2cc3c(cc12)OCO3 | 0.525 |
| Cc1ccc2c(O)cc(-c3cc(C)sc3C)nc2n1 | 4.79 |
| Cc1cnc2nc(-c3sccc3C)cc(O)c2c1 | 3.8 |
| COc1cc2c(c(OC)c1O)-c1ccc(SC)c(=O)cc1[C@@H](NC(=O)CC(C)=O)CC2 | 3.31 |
| Cc1cnc2nc(-c3ccc(C)s3)cc(O)c2c1 | 2.69 |
| COc1cc2c(c(OC)c1OC)-c1ccc(SC)c(=O)cc1[C@@H](NCc1ccc([N+](=O)[O-])cc1)CC2 | 2.29 |
| COc1cc2c(c(OC)c1OC)-c1ccc(SC)c(=O)cc1[C@@H](OC(=O)c1ccncc1)CC2 | 0.562 |
| COc1cc2c(c(OC)c1OC)-c1ccc(SC)c(=O)cc1[C@@H](OC(=O)c1cccnc1)CC2 | 0.759 |
| Cc1cccc(-c2cc(O)c3cccnc3n2)c1 | 3.31 |

| Compound | IC50 [µM] |
| --- | --- |
| CCCC(=O)O[C@@H]1CCc2cc(OC)c(OC)c(OC)c2-c2ccc(SC)cc21 | 4.79 |
| COc1cc2c(c(OC)c1OC)-c1ccc(SC)c(=O)cc1[C@@H](COC(=O)c1ccccc1F)C2 | 3.63 |
| COc1cc2c(c(OC)c1OC)-c1ccc(SC)c(=O)cc1[C@@H](NC(=O)C13CCC(C)(C(=O)O1)C3(C)C)CC2 (some centres not stated) | 2.4 |
| COc1cc2c(c(OC)c1OC)-c1ccc(SC)c(=O)cc1[C@@H](COC(=O)c1cccc(F)c1)C2 | 3.39 |
| Oc1cc(-c2cccc(C(F)(F)F)c2)nc2cc3c(cc12)OCO3 | 0.813 |
| Cc1ccc2c(O)cc(-c3ccc(Cl)s3)nc2n1 | 1.7 |
| COc1cc2c(c(OC)c1OC)-c1ccc(SC)c(=O)cc1[C@@H](OC(=O)C13CCC(C)(C(=O)O1)C3(C)C)CC2 (some centres not stated) | 1.41 |
| COc1cc2c(c(OC)c1OC)-c1ccc(SC)cc1[C@H](OC(C)=O)CC2 | 3.09 |
| Oc1cccc(-c2cc(O)c3cc4c(cc3n2)OCO4)c1 | 0.468 |
| COc1ccccc1-c1cc(O)c2cc(C)cnc2n1 | 18.2 |
| Cc1ccc2c(O)cc(-c3cccs3)nc2n1 | 6.03 |
| COc1cccc(-c2cc(O)c3cccnc3n2)c1 | 0.955 |
| Cc1ccc(-c2cc(O)c3c(C)cc(C)nc3n2)cc1 | 10 |
| Oc1cc(-c2ccc3ccccc3c2)nc2ncc(Cl)cc12 | 2.51 |
| COc1ccc(-c2cc(O)c3c(C)ccnc3n2)cc1 | 8.71 |
| COc1c(O)cc2c(c1OC)-c1ccc(SC)c(=O)cc1[C@@H](NC(=O)CC(C)=O)CC2 | 1.7 |
| COc1cccc(-c2cc(O)c3cc4c(cc3n2)OCO4)c1 | 0.575 |
| Cc1ccnc2nc(-c3ccc(F)cc3)cc(O)c12 | 18.2 |
| CCCC(=O)O[C@H]1CCc2cc(OC)c(OC)c(OC)c2-c2ccc(SC)cc21 | 2.82 |
| Cc1ccc(-c2cc(O)c3ccc(C)nc3n2)cc1 | 4.9 |
| COc1cc2c(c(OC)c1OC)-c1ccc(SC)cc1[C@H](OC(=O)c1ccccc1)CC2 | 2.69 |
| Oc1cc(-c2cccc(Cl)c2)nc2ncccc12 | 1.51 |
| Cc1ccc2c(O)cc(-c3ccc(C)s3)nc2n1 | 1.7 |

| Compound | IC50 [µM] |
| --- | --- |
| COc1ccc(-c2cc(O)c3cc(C)cnc3n2)cc1 | 7.76 |
| COc1ccc2c(c1)C=CCc1cc(OC)c(OC)c(OC)c1-2 | 2.19 |
| Cc1ccc2c(O)cc(-c3ccsc3)nc2n1 | 7.94 |
| COc1ccc(CN[C@H]2CCc3cc(OC)c(OC)c(OC)c3-c3ccc(SC)c(=O)cc32)c(OC)c1OC | 2.29 |
| Cc1cnc2nc(-c3ccc4ccccc4c3)cc(O)c2c1 | 2.09 |
| COc1cc2c(c(OC)c1OC)-c1ccc(SC)cc1[C@H](OC(=O)c1cccnc1)CC2 | 2.4 |
| Cc1ccc2c(O)cc(-c3ccc(Br)s3)nc2n1 | 1.51 |
| Cc1cnc2nc(-c3cccc(Cl)c3)cc(O)c2c1 | 0.724 |
| CNc1cccc(-c2cc(O)c3cc4c(cc3n2)OCO4)c1 | 0.646 |
| Cc1cc(C)c2c(O)cc(-c3cccc4ccccc34)nc2n1 | 0.776 |
| Cc1ccc2c(O)cc(-c3cccc(Cl)c3)nc2n1 | 0.891 |
| Cc1cccc(-c2cc(O)c3cc(C)cnc3n2)c1 | 1.51 |
| COc1cccc([C@@H]2CC(=O)c3cc4c(cc3N2)OCO4)c1 | 0.692 |
| Cc1ccc2c(O)cc(-c3ccc(Cl)cc3)nc2n1 | 11 |
| COc1ccc2c(c1)CCCc1cc(OC)c(OC)c(OC)c1-2 | 1.91 |
| Cc1ccnc2nc(-c3ccc(Cl)cc3)cc(O)c12 | 4.79 |
| Nc1cccc(-c2cc(O)c3cc4c(cc3n2)OCO4)c1 | 0.724 |
| COc1c(O)cc2c(c1OC)-c1ccc(SC)c(=O)cc1[C@@H](NC(C)=O)CC2C=O (some centres not stated) | 2.82 |
| COc1cc2c(c(OC)c1OC)-c1ccc(SC)c(=O)cc1[C@@H](COC(=O)c1cccc(C#N)c1)C2 | 3.02 |
| COc1ccc2c(c1)C(NC(C)=O)CCc1cc(OC)c(OC)c(OC)c1-2 (configuration not stated) | 1.51 |
| COc1cc2c(c(OC)c1OC)-c1ccc(SC)cc1[C@@H](O)C=C2 | 1.82 |
| COc1cccc(-c2cc(O)c3cc(N4CCOCC4)ccc3n2)c1 | 0.363 |
| Cc1ccc2c(O)cc(-c3cccc4ccccc34)nc2n1 | 0.661 |

| Compound | IC50 [µM] |
| --- | --- |
| Cc1cnc2nc(-c3cccc4ccccc34)cc(O)c2c1 | 0.55 |
| COc1cccc(-c2cc(O)c3cc(C)cnc3n2)c1 | 0.794 |
| Oc1cc(-c2cccc(Cl)c2)nc2cc3c(cc12)OCO3 | 0.372 |
| O=C(Oc1cccc(-c2cc(O)c3cc4c(cc3n2)OCO4)c1)c1ccccc1 | 0.447 |
| Oc1cc(-c2ccc(F)cc2)nc2ncc(Cl)cc12 | 15.8 |
| Cc1ccc2c(O)cc(-c3ccc4ccccc4c3)nc2n1 | 5.13 |
| Cc1cc(C)c2c(O)cc(-c3cccc(F)c3)nc2n1 | 0.741 |
| Cc1cc(C)c2c(O)cc(-c3cccc(Cl)c3)nc2n1 | 0.776 |
| COc1cccc(-c2cc(O)c3ccc(C)nc3n2)c1 | 0.759 |
| Oc1cc(-c2ccccc2F)nc2ccc(N3CCCC3)cc12 | 0.457 |
| COc1cc2c(c(OC)c1OC)-c1ccc(SC)c(=O)cc1[C@@H](NCc1ccc(F)cc1)CC2 | 3.24 |
| Cc1ccc(-c2cc(O)c3cc(C)cnc3n2)cc1 | 2.4 |
| COc1cccc(-c2cc(O)c3cc(N(C)C)ccc3n2)c1 | 0.38 |
| Cc1cnc2nc(-c3ccc(Cl)cc3)cc(O)c2c1 | 2 |
| COc1cccc(-c2cc(O)c3c(C)cc(C)nc3n2)c1 | 0.871 |
| Oc1cc(-c2cccc3ccccc23)nc2ncccc12 | 1.1 |
| Cc1ccc(-c2cc(O)c3c(C)ccnc3n2)cc1 | 2.88 |
| COc1cc2c(c(OC)c1O)-c1ccc(SC)c(=O)cc1[C@@H](NC(C)=O)CC2 | 1.51 |
| Oc1cc(-c2ccc3ccccc3c2)nc2ncccc12 | 14.1 |
| Cc1ccc2c(O)cc(-c3sccc3C)nc2n1 | 2.82 |
| COc1cccc(-c2cc(O)c3c(Cl)ccnc3n2)c1 | 0.724 |
| Cc1ccnc2nc(-c3ccc4ccccc4c3)cc(O)c12 | 1.82 |
